The text below walks through data of patent US11040976B2, “Substrate selective inhibitors of insulin-degrading enzyme (IDE) and uses thereof” (President and Fellows of Harvard College, priority 2015, dated 2021).

Assay [1] addresses T1, recombinant human IDE42-1019 (Homo sapiens, UniProt P14735).
T1 construct: recombinant human IDE42-1019 (R&D Systems); purchased R&D Systems
T1 sequence (P14735 42-1019): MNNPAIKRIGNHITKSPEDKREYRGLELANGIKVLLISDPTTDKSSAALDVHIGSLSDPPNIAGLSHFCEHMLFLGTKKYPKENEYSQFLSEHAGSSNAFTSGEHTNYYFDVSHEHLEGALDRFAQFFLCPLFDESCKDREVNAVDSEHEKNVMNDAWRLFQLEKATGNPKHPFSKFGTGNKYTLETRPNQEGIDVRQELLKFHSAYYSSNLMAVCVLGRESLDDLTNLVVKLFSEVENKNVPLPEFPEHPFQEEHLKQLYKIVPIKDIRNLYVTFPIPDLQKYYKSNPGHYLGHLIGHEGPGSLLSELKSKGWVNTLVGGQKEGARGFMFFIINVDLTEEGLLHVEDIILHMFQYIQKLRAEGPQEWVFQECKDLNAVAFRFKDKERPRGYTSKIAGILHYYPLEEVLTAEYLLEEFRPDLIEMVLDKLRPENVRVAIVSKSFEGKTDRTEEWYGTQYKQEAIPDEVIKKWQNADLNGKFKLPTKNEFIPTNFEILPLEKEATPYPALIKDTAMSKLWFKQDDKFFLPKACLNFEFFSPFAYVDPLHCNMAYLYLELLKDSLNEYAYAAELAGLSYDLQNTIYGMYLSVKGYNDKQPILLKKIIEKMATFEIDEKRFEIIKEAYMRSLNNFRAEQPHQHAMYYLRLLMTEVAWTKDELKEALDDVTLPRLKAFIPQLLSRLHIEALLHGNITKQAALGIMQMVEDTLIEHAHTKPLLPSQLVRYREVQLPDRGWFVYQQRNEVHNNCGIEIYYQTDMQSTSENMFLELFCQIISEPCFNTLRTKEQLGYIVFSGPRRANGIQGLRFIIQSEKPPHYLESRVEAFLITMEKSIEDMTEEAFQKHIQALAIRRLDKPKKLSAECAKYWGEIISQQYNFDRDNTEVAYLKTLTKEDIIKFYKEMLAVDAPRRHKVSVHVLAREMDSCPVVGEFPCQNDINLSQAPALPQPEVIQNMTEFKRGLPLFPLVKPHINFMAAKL
Kind of assay: Protease assay with fluorogenic peptide substrate Mca-[…](Dnp)-OH. The format is biochemical. Conditions: fluorogenic peptide Mca-RPPGFSAFK(Dnp)-OH; for IC50: apparent IC50 for compounds with submaximal inhibition, read-out: IC50 (μM) Proteolysis; for Emax: plateau at high inhibitor concentration, read-out: Imax (%) Proteolysis (inhibition maximum).

Assay [2] deals with T2, Human N-His6-IDE42-1019 (E. coli expressed) (Homo sapiens, UniProt P14735).
T2 construct: Human N-His6-IDE42-1019 (E. coli expressed); made in house; host or cells: E. coli (Rosetta 2 (DE3) pLysS, plasmid pTrcHis-A)
T2 sequence (P14735 42-1019): T1 sequence (P14735 42-1019)
Kind of assay: Fluorescence anisotropy high-throughput screening assay (displacement of probe FL-6b). The format is binding. As for the experimental part:
The fluorescence anisotropy screening method and probe FL-6b are described in PCT application PCT/US2014/064322, incorporated herein by reference.
Human N-His6-IDE42-1019 (E. coli expressed) was mixed with fluorescein-labeled macrocycle FL-6b:
[drawing 802] in 50 mM Tris buffer pH 8.0, with 1 M NaCl, at 25° C. Optimum signal was obtained using a mixture of […] probe FL-6b and 0.5 μM IDE. The “diversity-oriented (DOS) synthesis informer set” compound plates were pinned onto 384-well plates containing the enzyme-probe mixture (50 μL/well). The azetidine screen was pre-printed on 384-well plates and the enzyme-probe mixture was added (50 μL/well). The final compound concentration was 20 μM. IDE inhibitor 6bK was used as a positive control at a final concentration of 1 μM. After 30 minutes of equilibration, the increase in fluorescence anisotropy was recorded using an EnVision spectrophotometer (excitation 492 nm, emission 523 nm). The fluorescence anisotropy was independently measured twice for each screened compound. The Z-scores for each pair of measurements are plotted in FIG. 1A (DOS informer set) and FIG. 1B (azetidines), and average Z-scores are listed for exemplary compounds in Table E1.
Z-scores were calculated based on the raw anisotropy measured for each well according to Eq. 1, wherein x is the raw anisotropy value of the well, μ is the mean of the anisotropy of the negative control wells (DMSO) for the plate, and σ is the standard deviation in anisotropy of the negative control wells (DMSO) for the plate.

The mark [3] stands for this setting: final compound concentration 20 μM (6bK control 1 μM), values without asterisk.
Setting [4] is: values marked *: from the screen using the diversity-oriented synthesis (DOS) informer set of plates, 20 μM.

The structures appear in SMILES notation.

Consider `Cc1ccccc1-c1ccc([C@H]2[C@@H](CO)N3CCCCN(S(=O)(=O)Cc4ccccc4)C[C@@H]23)cc1` [compound 236], for which the IC50 in assay [1] was over 200 µM. For the same molecule, the “Average Z-score (Fluorescence anisotropy)” value (shortened to “Average Z-score”) in assay [2] (setting [3]) is −1.64.

In the case of `COc1ccccc1C#Cc1ccc([C@H]2[C@H]3CN(C(=O)C4CCC4)CCCCN3[C@H]2CO)cc1` [compound 141], the IC50 in assay [1] was over 100 µM. The “Average Z-score” value in assay [2] (setting [4]) is −17.53*.

As to `Cc1cccc(-c2ccc([C@@H]3[C@@H](CO)N4CCCCN(CC5CC5)C[C@@H]34)cc2)c1` [compound 837], in assay [1], the IC50 was over 100 µM. Moreover, the “Average Z-score” value in assay [2] (setting [3]) is on record as −2.88.

Take `Cc1ccccc1-c1ccc([C@H]2[C@@H](CO)N3CCCCN(C(=O)c4cccnc4)C[C@@H]23)cc1` [compound 712]: the IC50 in assay [1] is over 100 µM. The “Average Z-score” value in assay [2] (setting [3]) was −4.78.

For `COc1ccc(NC(=O)N2CCCCN3[C@H](CO)[C@H](c4ccc(-c5ccccc5C)cc4)[C@@H]3C2)cc1` [compound 529], the Emax in assay [1] amounted to 30%. The “Average Z-score” value in assay [2] (setting [3]) is on record as −0.82.

Turning to `Cc1ccccc1-c1ccc([C@H]2[C@H](CO)N3C(=O)CN(C(=O)c4ccncc4)C[C@@H]23)cc1` [compound 580], the Emax in assay [1] was determined as 70%. The “Average Z-score” value in assay [2] (setting [3]) is −7.49.

Turning to `Cc1ccccc1-c1ccc([C@@H]2[C@H](CO)N3CCCCN(C(=O)NC4CCCC4)C[C@@H]23)cc1` [compound 932], in assay [1], the IC50 was over 20 µM and the Emax was 90%. Further, in assay [2] (setting [3]), the “Average Z-score” value is −19.01.

In the case of `Cc1ccccc1-c1ccc([C@@H]2[C@H]3CN(C(=O)c4cccnc4)CC(=O)N3[C@H]2CO)cc1` [compound 745], in assay [1], the half-inhibitory concentration (IC50) came to 2.5 µM and the Emax came to 70%. For the same molecule, in assay [2] (setting [3]), the “Average Z-score” value is listed as −19.67.

For the molecule `Cc1ccccc1-c1ccc([C@@H]2[C@H]3CN(C(=O)c4ccncc4)CC(=O)N3[C@H]2CO)cc1` [compound 102], the Emax in assay [1] amounted to 80%. The “Average Z-score” value in assay [2] (setting [4]) is recorded as −13.56*.

`COc1cccc(C#Cc2ccc([C@@H]3[C@H](CO)N4C(=O)CN(C(C)=O)C[C@@H]34)cc2)c1` [compound 608]: in assay [1], the IC50 is under 10 µM and the Emax was about 100%. Also, in assay [2] (setting [3]), the “Average Z-score” value was −15.34.

`Cc1cccc(-c2ccc([C@@H]3[C@@H](CO)N4CCCCN(C(=O)c5cccnc5)C[C@@H]34)cc2)c1` [compound 443]: in assay [1], the IC50 was over 100 µM. Also, the “Average Z-score” value in assay [2] (setting [3]) is on record as −3.13.

On to `Cc1cccc(-c2ccc([C@@H]3[C@H](CO)N4CCCCN(S(=O)(=O)c5cn(C)cn5)C[C@@H]34)cc2)c1` [compound 795], for which the Emax in assay [1] was 40%. The “Average Z-score” value in assay [2] (setting [3]) is listed as −19.52.

For `Cc1ccccc1-c1ccc([C@@H]2[C@H]3CN(S(=O)(=O)c4cn(C)cn4)CCCCN3[C@H]2CO)cc1` [compound 868], in assay [1], the IC50 was 2.5 µM and the Emax was determined as 40%. Besides, the “Average Z-score” value in assay [2] (setting [3]) is −18.53.

Regarding `Cc1ccccc1-c1ccc(C2C3CN(C(=O)C4CCOCC4)CC2N3)cc1` (centres unmarked) [C7], in assay [1], the IC50 came to 2.5 µM and the Emax came to 80%. Further, in assay [2] (setting [3]), the “Average Z-score” value is recorded as −7.7.

For the molecule `Cc1cccc(-c2ccc([C@H]3[C@@H](CO)N4CCCCN(C(=O)c5ccncc5)C[C@H]34)cc2)c1` [compound 836], the Emax in assay [1] turned out to be 60%. In addition, the “Average Z-score” value in assay [2] (setting [3]) is reported as −18.28.

For the molecule `Cc1ccccc1-c1ccc([C@@H]2[C@@H](CO)N3C(=O)CN(S(C)(=O)=O)C[C@@H]23)cc1` [compound 585], in assay [1], the IC50 was determined as 2.5 µM and the Emax was 40%. In addition, in assay [2] (setting [4]), the “Average Z-score” value is −12.65*.

For the molecule `Cc1ccccc1-c1ccc([C@H]2[C@H](CO)N3C(=O)CN(C(=O)c4ccc(F)cc4)C[C@@H]23)cc1` [compound 124], in assay [1], the Emax was determined as 70%. Moreover, the “Average Z-score” value in assay [2] (setting [3]) is reported as −16.49.

Regarding `Cc1cccc(-c2ccc([C@H]3[C@@H](CO)N4CCCCN(C(=O)c5cccnc5)C[C@H]34)cc2)c1` [compound 091], in assay [1], the IC50 was determined as 7 µM and the Emax is 70%. The “Average Z-score” value in assay [2] (setting [3]) is given as −16.96.

Take `O=C(C1CCOCC1)N1CC(=O)N2[C@H](CO)[C@H](c3ccc(C#Cc4cccc(F)c4)cc3)[C@H]2C1` [compound 142]: in assay [1], the IC50 came out at 6 µM and the Emax was about 100%. In addition, the “Average Z-score” value in assay [2] (setting [3]) is recorded as −19.27.

Regarding `Cc1ccccc1-c1ccc([C@@H]2[C@@H](CO)N3CCCCN(S(=O)(=O)c4ccc(F)cc4)C[C@@H]23)cc1` [compound 217], the Emax in assay [1] amounted to 40%. Besides, in assay [2] (setting [3]), the “Average Z-score” value is recorded as −17.51.

With `Cc1ccccc1-c1ccc([C@H]2[C@@H](CO)N3CCCCN(C(=O)Nc4ccccc4)C[C@@H]23)cc1` [compound 1570], in assay [1], the IC50 amounted to 7 µM and the Emax worked out at 40%. Also, the “Average Z-score” value in assay [2] (setting [3]) is on record as −1.37.

In the case of `Cc1ccccc1-c1ccc(C2C3CN(Cc4cocn4)CC2N3)cc1` (centres unmarked) [C9], in assay [1], the IC50 was determined as 25 µM and the Emax was over 60%. Moreover, the “Average Z-score” value in assay [2] (setting [3]) was −3.01.

Turning to `CCS(=O)(=O)N1CCCCN2[C@H](CO)[C@@H](c3ccc(-c4ccccc4C)cc3)[C@@H]2C1` [compound 416], the Emax in assay [1] amounted to 60%. Moreover, the “Average Z-score” value in assay [2] (setting [3]) is on record as −18.29.

For the molecule `COc1ccccc1-c1ccc([C@@H]2[C@@H](C#N)N(C(=O)c3cccnc3)[C@@H]2CO)cc1` [D9], in assay [1], the IC50 is 7.5 µM and the Emax stood at 60%. Besides, the “Average Z-score” value in assay [2] (setting [3]) was −12.03.

`Cc1ccccc1-c1ccc([C@H]2[C@H](CO)N3C(=O)CN(C(=O)Cc4ccccn4)C[C@@H]23)cc1` [compound 321]: the Emax in assay [1] is 50%. Further, in assay [2] (setting [3]), the “Average Z-score” value is given as −17.72.

As for `Cc1ccccc1-c1ccc([C@H]2[C@@H](CO)N3CCCCN(C(=O)NC4CCCC4)C[C@H]23)cc1` [compound 255], the Emax in assay [1] came to 50%. Further, the “Average Z-score” value in assay [2] (setting [3]) was −17.33.

In the case of `Cc1cccc(-c2ccc([C@H]3[C@@H](CO)N4CCCCN(Cc5cccnc5)C[C@H]34)cc2)c1` [compound 959], in assay [1], the IC50 was over 60 µM. Further, the “Average Z-score” value in assay [2] (setting [3]) is on record as −6.79.

On to `Cc1ccccc1-c1ccc(C2C3CN(Cc4ccncc4)CC2N3)cc1` (centres unmarked) [C3], for which, in assay [1], the IC50 came to 5 µM and the Emax came to 70%. Moreover, in assay [2] (setting [3]), the “Average Z-score” value is −9.02.

As for `Cc1ccccc1-c1ccc([C@H]2[C@@H](CO)N3CCCCN(S(=O)(=O)c4cn(C)cn4)C[C@H]23)cc1` [compound 736], in assay [1], the IC50 came out at 2.5 µM and the Emax was determined as 35%. For the same molecule, in assay [2] (setting [3]), the “Average Z-score” value is listed as −16.6.

Regarding `COc1ccccc1-c1ccc([C@H]2[C@@H](CO)N3CCCCN(C(=O)c4cccnc4)C[C@H]23)cc1` [compound 983], in assay [1], the IC50 is over 20 µM and the Emax is 90%. The “Average Z-score” value in assay [2] (setting [4]) is recorded as −12.81*.

As usually defined, the IC50 is the concentration that gives 50% inhibition.
